Inhibition data for 19 compounds are collected here from patent US8343983B2, “Substituted pyrazolo-pyrimidine compounds” (ArQule, Inc., priority 2009, dated 2013).

Molecules are shown by their SMILES. Like-named read-outs stand apart in the source and are kept apart here.

The subject of the test is cancer cells. As to the kind of experiment: MTS assay: inhibition of cell growth (formazan absorbance at 492 nm after 72 hours with test compound). Type of test: cell-based. As to conditions: inhibition class. The method in brief:
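DMEM with 1% FBS; cells seeded at 3000/well and grown 18 h at 37 °C, then exposed to compound for 72 h and to MTS/PMS for 4 h. IC50 is the concentration giving a 50% absorbance drop; grades are % inhibition bands.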

Setting [1] is: Homo sapiens, DLD-1 cells, read-out: DLD-1, MTS 72 hours at 10 uM.
Where [2] appears, read: Homo sapiens, KATO III cells, read-out: KATO III, MTS 72 hours at 10 uM.
[3] abbreviates: Homo sapiens, MDA-MB-231 cells, read-out: MDA-MB-231, MTS 72 hours at 10 uM.
[4] abbreviates: Homo sapiens, NCI-H1299 cells, read-out: NCI-H1299, MTS 72 hours at 10 uM.
The mark [5] stands for this setting: Homo sapiens, PC-3 cells, read-out: PC-3, MTS 72 hours at 10 uM.
Where [6] appears, read: PACA-2 cells, read-out: PACA-2, MTS 72 hours at 10 uM.

On to `O=C(NCc1ccccc1)C1CN(Cc2ccccc2)c2nc(N3CCN(c4ccccc4)CC3)nc3[nH]nc1c23` (stereo not drawn) [Compound 231, N,6-dibenzyl-4-(4-phenylpiperazin-1-yl)-2,6,7,8-tetrahydro-1,2,3,5,6-pentaazaacenaphthylene-8-carboxamide], for which the inhibition at 10 µM reads like this: under setting [1], 50 to 79%; under setting [2], 50 to 79%; under setting [3], over 79%; under setting [4], over 79%; under setting [5], 50 to 79%; under setting [6], 50 to 79%.
`COCC(C)Nc1nc2c3c(n[nH]c3n1)CCN2Cc1ccccc1` (stereo not drawn) [Compound 78, 6-benzyl-N-(2-methoxy-1-methylethyl)-2,6,7,8-tetrahydro-1,2,3,5,6-pentaazaacenaphthylen-4-amine]: the inhibition at 10 µM by setting is: under setting [1], under 50%; under setting [2], under 50%; under setting [3], over 79%; under setting [4], under 50%; under setting [5], over 79%; under setting [6], under 50%.
With `c1ccc(CN2CCc3n[nH]c4nc(NCCN5CCOCC5)nc2c34)cc1` [Compound 57, 6-benzyl-N-(2-morpholin-4-ylethyl)-2,6,7,8-tetrahydro-1,2,3,5,6-pentaazaacenaphthylen-4-amine], the inhibition at 10 µM under setting [1] was over 79%; the inhibition at 10 µM under setting [2] was over 79%; the inhibition at 10 µM under setting [3] is over 79%; the inhibition at 10 µM under setting [4] fell in the range of 50 to 79%; the inhibition at 10 µM under setting [5] was over 79%; the inhibition at 10 µM under setting [6] is over 79%.
Take `CN(CCO)c1nc2c3c(n[nH]c3n1)CCN2Cc1ccccc1` [Compound 64, 2-[(6-benzyl-2,6,7,8-tetrahydro-1,2,3,5,6-pentaazaacenaphthylen-4-yl)(methyl)amino]ethanol]: the inhibition at 10 µM under setting [1] is under 50%; the inhibition at 10 µM under setting [2] is under 50%; the inhibition at 10 µM under setting [3] is under 50%; the inhibition at 10 µM under setting [4] was under 50%; the inhibition at 10 µM under setting [5] was under 50%; the inhibition at 10 µM under setting [6] is under 50%.
With `CN(C)CCN(C)c1nc2c3c(n[nH]c3n1)CCN2Cc1ccccc1` [Compound 23, N-(6-benzyl-2,6,7,8-tetrahydro-1,2,3,5,6-pentaazaacenaphthylen-4-yl)-N,N′,N′-trimethylethane-1,2-diamine], the inhibition at 10 µM under setting [1] was under 50%; the inhibition at 10 µM under setting [2] is under 50%; the inhibition at 10 µM under setting [3] lay in the range of 50 to 79%; the inhibition at 10 µM under setting [4] was under 50%; the inhibition at 10 µM under setting [5] was over 79%; the inhibition at 10 µM under setting [6] is under 50%.
Regarding `COc1ccccc1N1CCN(c2nc3c4c(n[nH]c4n2)CCN3Cc2ccccc2)CC1` [Compound 43, 6-benzyl-4-[4-(2-methoxyphenyl)piperazin-1-yl]-2,6,7,8-tetrahydro-1,2,3,5,6-pentaazaacenaphthylene], the inhibition at 10 µM is, setting by setting: under setting [1], under 50%; under setting [2], over 79%; under setting [3], over 79%; under setting [4], under 50%; under setting [5], over 79%; under setting [6], under 50%.
On to `COc1cc2c(cc1OC)CN(c1nc3c4c(n[nH]c4n1)CCN3Cc1ccccc1)CC2` [Compound 58, 6-benzyl-4-(6,7-dimethoxy-3,4-dihydroisoquinolin-2(1H)-yl)-2,6,7,8-tetrahydro-1,2,3,5,6-pentaazaacenaphthylene], for which the inhibition at 10 µM is, setting by setting: under setting [1], 50 to 79%; under setting [2], under 50%; under setting [3], 50 to 79%; under setting [4], 50 to 79%; under setting [5], over 79%; under setting [6], under 50%.
In the case of `OCCN(Cc1ccccc1)c1nc2c3c(n[nH]c3n1)CCN2Cc1ccccc1` [Compound 62, 2-[benzyl(6-benzyl-2,6,7,8-tetrahydro-1,2,3,5,6-pentaazaacenaphthylen-4-yl)amino]ethanol], the inhibition at 10 µM runs as follows: under setting [1], under 50%; under setting [2], under 50%; under setting [3], 50 to 79%; under setting [4], under 50%; under setting [5], under 50%; under setting [6], under 50%.
Regarding `Clc1ccccc1CCNc1nc2c3c(n[nH]c3n1)CCN2Cc1ccccc1` [Compound 35, 6-benzyl-N-[2-(2-chlorophenyl)ethyl]-2,6,7,8-tetrahydro-1,2,3,5,6-pentaazaacenaphthylen-4-amine], the inhibition at 10 µM by setting is: under setting [1], under 50%; under setting [2], under 50%; under setting [3], 50 to 79%; under setting [4], under 50%; under setting [5], under 50%; under setting [6], under 50%.
`CN1CCN(c2nc3c4c(n[nH]c4n2)CCN3Cc2ccccc2)CC1` [Compound 80, 6-benzyl-4-(4-methylpiperazin-1-yl)-2,6,7,8-tetrahydro-1,2,3,5,6-pentaazaacenaphthylene]: the inhibition at 10 µM was under 50% under setting [1]; under 50% under setting [2]; under 50% under setting [3]; under 50% under setting [4]; under 50% under setting [5]; under 50% under setting [6].
As for `COc1ccc(CN2CCc3n[nH]c4nc(NCCc5ccccc5)nc2c34)cc1` [Compound 116, 6-(4-methoxybenzyl)-N-(2-phenylethyl)-2,6,7,8-tetrahydro-1,2,3,5,6-pentaazaacenaphthylen-4-amine], the inhibition at 10 µM is over 79% under setting [1]; over 79% under setting [2]; over 79% under setting [3]; over 79% under setting [4]; over 79% under setting [5]; over 79% under setting [6].
With `Cn1c(CNc2nc3c4c(n[nH]c4n2)CCN3Cc2ccccc2)nc2ccccc21` [Compound 21, 6-benzyl-N-[(1-methyl-1H-benzimidazol-2-yl)methyl]-2,6,7,8-tetrahydro-1,2,3,5,6-pentaazaacenaphthylen-4-amine], the inhibition at 10 µM under setting [1] was under 50%; the inhibition at 10 µM under setting [2] is 50 to 79%; the inhibition at 10 µM under setting [3] is under 50%; the inhibition at 10 µM under setting [4] was under 50%; the inhibition at 10 µM under setting [5] was under 50%; the inhibition at 10 µM under setting [6] was under 50%.
Regarding `Fc1ccc(CCNc2nc3c4c(n[nH]c4n2)CCN3)cc1` [Compound 124, N-[2-(4-fluorophenyl)ethyl]-2,6,7,8-tetrahydro-1,2,3,5,6-pentaazaacenaphthylen-4-amine], the inhibition at 10 µM was under 50% under setting [1]; under 50% under setting [2]; under 50% under setting [3]; under 50% under setting [4]; under 50% under setting [5]; 50 to 79% under setting [6].
For the compound `CN(CCc1ccccc1)c1nc2c3c(n[nH]c3n1)CCN2Cc1ccccc1` [Compound 81, 6-benzyl-N-methyl-N-(2-phenylethyl)-2,6,7,8-tetrahydro-1,2,3,5,6-pentaazaacenaphthylen-4-amine], the inhibition at 10 µM is, setting by setting: under setting [1], under 50%; under setting [2], under 50%; under setting [3], under 50%; under setting [4], under 50%; under setting [5], under 50%; under setting [6], under 50%.
In the case of `Cc1cccc2c(CCNc3nc4c5c(n[nH]c5n3)CCN4Cc3ccccc3)c[nH]c12` [Compound 73, 6-benzyl-N-[2-(7-methyl-1H-indol-3-yl)ethyl]-2,6,7,8-tetrahydro-1,2,3,5,6-pentaazaacenaphthylen-4-amine], the inhibition at 10 µM under setting [1] was over 79%; the inhibition at 10 µM under setting [2] is over 79%; the inhibition at 10 µM under setting [3] fell in the range of 50 to 79%; the inhibition at 10 µM under setting [4] is over 79%; the inhibition at 10 µM under setting [5] was under 50%; the inhibition at 10 µM under setting [6] is 50 to 79%.
`COc1ccc(CN2CCc3n[nH]c4nc(NCc5ccccc5Cl)nc2c34)cc1` [Compound 112, N-(2-chlorobenzyl)-6-(4-methoxybenzyl)-2,6,7,8-tetrahydro-1,2,3,5,6-pentaazaacenaphthylen-4-amine]: the inhibition at 10 µM was over 79% under setting [1]; over 79% under setting [2]; over 79% under setting [3]; under 50% under setting [4]; over 79% under setting [5]; over 79% under setting [6].
With `c1ccc(N2CCc3n[nH]c4nc(N5CCCC5)nc2c34)cc1` [Compound 216, 6-phenyl-4-pyrrolidin-1-yl-2,6,7,8-tetrahydro-1,2,3,5,6-pentaazaacenaphthylene], the inhibition at 10 µM runs as follows: under setting [1], under 50%; under setting [2], under 50%; under setting [3], under 50%; under setting [4], under 50%; under setting [5], under 50%; under setting [6], 50 to 79%.
Turning to `c1ccc(CN2CCc3n[nH]c4nc(N5CCN(CCc6ccncc6)CC5)nc2c34)cc1` [Compound 74, 6-benzyl-4-[4-(2-pyridin-4-ylethyl)piperazin-1-yl]-2,6,7,8-tetrahydro-1,2,3,5,6-pentaazaacenaphthylene], the inhibition at 10 µM by setting is: under setting [1], under 50%; under setting [2], under 50%; under setting [3], under 50%; under setting [4], under 50%; under setting [5], under 50%; under setting [6], under 50%.
With `O=C(CN1CCN(c2nc3c4c(n[nH]c4n2)CCN3Cc2ccccc2)CC1)N1CCCC1` [Compound 83, 6-benzyl-4-[4-(2-oxo-2-pyrrolidin-1-ylethyl)piperazin-1-yl]-2,6,7,8-tetrahydro-1,2,3,5,6-pentaazaacenaphthylene], the inhibition at 10 µM reads like this: under setting [1], under 50%; under setting [2], under 50%; under setting [3], under 50%; under setting [4], under 50%; under setting [5], under 50%; under setting [6], under 50%.
